Here are results for six compounds from paper PMC10934024, “Protein–Ligand Binding and Structural Modelling Studies of Pheromone-Binding Protein-like Sol g 2.1 from Solenopsis geminata Fire Ant Venom” (Molecules, 2024).

In general, Kd refers to the constant that tells how readily two partners part at equilibrium. Higher therefore signals lower affinity.

Experiment [1] has as its system Sol i 2. The note with it: cited from earlier work.
Experiment [2] concerns the target T1, rSol g 2.1 protein (Solenopsis geminata, UniProt A0A9E7V488).
T1 sequence (A0A9E7V488 1-119): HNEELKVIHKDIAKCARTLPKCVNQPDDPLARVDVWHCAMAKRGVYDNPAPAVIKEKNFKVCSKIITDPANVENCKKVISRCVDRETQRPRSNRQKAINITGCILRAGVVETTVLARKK
The experiment can be described thus: Fluorescence binding assay, NPN titration into rSol g 2.1. As for the experimental part: The fluorescence binding assay of rSol g 2.1 protein was conducted using the fluorescent probe N-phenyl-1-naphtylamine (NPN). […] The fluorescence intensity was measured on a PTI QuantaMaster fluorometer (Horiba Ltd., Kyoto, Japan) with a 337 nm excitation wavelength and emission scan ranging from 300–500 nm at room temperature in triplicate. To obtain the equilibrium dissociation (Kd) value, the fluorescence intensity at the maximal emission wavelength 400 nm was plotted for each NPN concentration. Data were fitted to a specific allosteric binding model using GraphPad Prism Version 9.0 (GraphPad Software, San Diego, CA, USA). Y = Bmax × X^h/(Kd^h + X^h) was used as an equation in the fitting model, where Bmax is the maximal specific binding in the same unit as Y, X is the NPN concentration (µM), and Y is the fluorescence intensity counts/second. Moreover, h is the Hill slope, which is 1.0 for cases with one site. If there is more than one binding site per protein and there is cooperativity, then h > 1.0, and the graph takes on a sigmoidal appearance.

In experiment [3] the target is T1, rSol g 2.1 protein. The experiment can be described thus: Fluorescence competitive binding assay (NPN displacement). The note with it: 2 µM rSol g 2.1 with 4 µM NPN, ligand 0-4 µM, 50 mM Tris-HCl pH 7.4. As for the experimental part:
The binding of the endogenous ligands, including decane, undecane dodecane, and tridecane, to rSol g 2.1 protein was measured by a competitive binding assay. In this procedure, 1 mL of rSol g 2.1 protein (2 µM) in 50 mM Tris-HCl (pH 7.4) containing NPN (4 µM) was titrated with each ligand (1 mM in methanol stock) to the final concentrations of 0, 0.125, 0.375, 0.625, 0.875, 1.125, 2, 3, and 4 µM. Additionally, the same concentrations of the blended ligands, which consisted of decane (45%), undecane (36%), dodecane (15%), and tridecane (4%), were used to investigate the blend effect of Sol g 2.1 protein. The resulting isotherms were fitted (GraphPad Prism 9) to both a one-site model and an allosteric model.

In the case of `C=CC(=C)CC/C=C(\C)CCC=C(C)C` [(E)-β-farnesene], the binding affinity entry in experiment [1] was “high binding affinity”.

Consider `c1ccc(Nc2cccc3ccccc23)cc1` [NPN, N-phenyl-1-naphtylamine], for which, in experiment [2] (2 µM rSol g 2.1, 50 mM Tris-HCl pH 7.4, NPN 0-12 µM, emission 400 nm, specific binding with Hill slope model), the dissociation constant (Kd) is 1900 ± 80 nM. Besides, the “h slope (Hill slope)” value in experiment [2] (same fit as Kd of NPN) worked out at 1.64 ± 0.12.

`CCCCCCCCCC` [decane, Decane]: the binding affinity entry in experiment [1] is given as “high binding affinity”. The compound further showed a Kd in experiment [3] of 320 nM.

`CCCCCCCCCCCC` [dodecane, Dodecane] yielded a Kd in experiment [3] of 390 nM.

For `CCCCCCCCCCCCC` [tridecane, Tridecane], binding in experiment [3] was put at a Kd of 380 nM.

Regarding `CCCCCCCCCCC` [undecane, Undecane], in experiment [1], the binding affinity result is “high binding affinity”. In experiment [3], this compound showed an equilibrium dissociation constant (Kd) of 330 nM.
